From US7879881B2, “Piperidinyl compounds that selectively bind integrins” (Janssen Pharmaceutica NV, priority 2002, dated 2011)
Read-outs that look alike come from different tables or passages of the source.

Assays:
Human αvβ3 = molecular target: T1, Human αvβ3 (Homo sapiens, UniProt P05106+P06756); assay: In Vitro Solid Phase Purified αvβ3 Binding Assay (vitronectin/αvβ3); conditions: vitronectin binding to immobilized purified human αvβ3; mean ± spread; read-out: αvβ3IC50
T1 construct: purchased Chemicon International Inc., Temecula, Calif
T1 sequence (P06756 31-889 limits assumed): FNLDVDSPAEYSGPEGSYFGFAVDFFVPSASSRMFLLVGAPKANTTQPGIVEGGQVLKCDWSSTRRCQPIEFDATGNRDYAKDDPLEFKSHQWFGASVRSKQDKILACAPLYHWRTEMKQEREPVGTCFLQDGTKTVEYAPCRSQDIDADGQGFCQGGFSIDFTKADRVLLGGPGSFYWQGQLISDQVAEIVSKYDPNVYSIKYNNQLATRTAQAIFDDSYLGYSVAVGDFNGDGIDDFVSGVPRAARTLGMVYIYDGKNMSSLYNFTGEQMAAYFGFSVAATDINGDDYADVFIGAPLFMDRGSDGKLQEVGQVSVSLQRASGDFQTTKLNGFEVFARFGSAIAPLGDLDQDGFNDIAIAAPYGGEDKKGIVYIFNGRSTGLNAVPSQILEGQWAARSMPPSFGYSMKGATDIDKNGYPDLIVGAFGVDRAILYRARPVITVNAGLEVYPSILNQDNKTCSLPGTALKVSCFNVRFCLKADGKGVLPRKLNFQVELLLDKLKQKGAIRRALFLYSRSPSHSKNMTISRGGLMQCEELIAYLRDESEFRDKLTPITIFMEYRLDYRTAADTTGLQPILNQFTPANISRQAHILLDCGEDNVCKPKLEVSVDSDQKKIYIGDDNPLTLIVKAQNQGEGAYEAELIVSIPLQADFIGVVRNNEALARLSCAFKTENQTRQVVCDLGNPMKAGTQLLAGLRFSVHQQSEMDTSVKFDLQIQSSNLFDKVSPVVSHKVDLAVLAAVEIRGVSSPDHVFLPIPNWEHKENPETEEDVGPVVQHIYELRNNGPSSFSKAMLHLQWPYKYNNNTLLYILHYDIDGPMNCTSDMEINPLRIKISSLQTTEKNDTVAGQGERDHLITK
T1 sequence (P06756 891-1048 partner limits assumed): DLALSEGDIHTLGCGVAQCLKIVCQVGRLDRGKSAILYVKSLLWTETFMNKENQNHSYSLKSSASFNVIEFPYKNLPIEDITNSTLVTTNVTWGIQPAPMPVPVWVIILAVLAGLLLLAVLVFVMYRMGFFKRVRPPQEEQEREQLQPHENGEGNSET
T1 sequence (P05106 27-788): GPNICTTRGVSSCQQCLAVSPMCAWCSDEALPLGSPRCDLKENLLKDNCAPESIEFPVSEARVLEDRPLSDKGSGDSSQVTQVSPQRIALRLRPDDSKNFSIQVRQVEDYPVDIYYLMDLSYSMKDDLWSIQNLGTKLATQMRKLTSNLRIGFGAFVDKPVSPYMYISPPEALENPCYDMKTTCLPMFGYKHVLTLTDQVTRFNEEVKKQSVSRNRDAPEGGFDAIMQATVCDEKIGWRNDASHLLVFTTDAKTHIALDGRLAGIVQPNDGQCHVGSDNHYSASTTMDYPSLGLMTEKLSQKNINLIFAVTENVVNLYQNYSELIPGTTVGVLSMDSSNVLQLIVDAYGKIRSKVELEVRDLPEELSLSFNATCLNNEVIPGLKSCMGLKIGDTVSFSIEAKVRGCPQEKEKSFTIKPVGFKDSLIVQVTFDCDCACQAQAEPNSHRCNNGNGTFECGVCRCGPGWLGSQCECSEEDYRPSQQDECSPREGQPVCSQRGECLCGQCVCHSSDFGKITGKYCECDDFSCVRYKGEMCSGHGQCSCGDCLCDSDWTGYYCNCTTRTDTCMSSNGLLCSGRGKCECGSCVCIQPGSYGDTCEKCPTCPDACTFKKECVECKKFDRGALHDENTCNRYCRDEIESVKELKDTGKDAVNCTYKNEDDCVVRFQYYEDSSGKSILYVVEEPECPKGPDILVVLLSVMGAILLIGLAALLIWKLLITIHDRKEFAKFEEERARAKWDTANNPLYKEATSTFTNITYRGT
Summary of the method: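 Purified human αvβ3 immobilized at 1 μg/ml in Tris buffer with Ca, Mg and Mn; compounds competed with 2 nM vitronectin for 3 h at 37 °C. Bound vitronectin detected by anti-vitronectin antibody and peroxidase ABC, absorbance at 490 nm.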

human purified αVβ5 = molecular target: T2, human purified αVβ5 (Homo sapiens, UniProt P06756+P18084); assay: In Vitro Solid Phase Purified αcβ5 Binding Assay (vitronectin/αVβ5); conditions: vitronectin binding to immobilized purified human αVβ5; mean ± spread; read-out: αvβ5 IC50
T2 construct: purchased Chemicon International, Inc
T2 sequence (P06756 31-889 limits assumed): as the sequence (P06756 31-889 limits assumed) above
T2 sequence (P06756 891-1048 partner limits assumed): as the sequence (P06756 891-1048 partner limits assumed) above
T2 sequence (P18084 24-799): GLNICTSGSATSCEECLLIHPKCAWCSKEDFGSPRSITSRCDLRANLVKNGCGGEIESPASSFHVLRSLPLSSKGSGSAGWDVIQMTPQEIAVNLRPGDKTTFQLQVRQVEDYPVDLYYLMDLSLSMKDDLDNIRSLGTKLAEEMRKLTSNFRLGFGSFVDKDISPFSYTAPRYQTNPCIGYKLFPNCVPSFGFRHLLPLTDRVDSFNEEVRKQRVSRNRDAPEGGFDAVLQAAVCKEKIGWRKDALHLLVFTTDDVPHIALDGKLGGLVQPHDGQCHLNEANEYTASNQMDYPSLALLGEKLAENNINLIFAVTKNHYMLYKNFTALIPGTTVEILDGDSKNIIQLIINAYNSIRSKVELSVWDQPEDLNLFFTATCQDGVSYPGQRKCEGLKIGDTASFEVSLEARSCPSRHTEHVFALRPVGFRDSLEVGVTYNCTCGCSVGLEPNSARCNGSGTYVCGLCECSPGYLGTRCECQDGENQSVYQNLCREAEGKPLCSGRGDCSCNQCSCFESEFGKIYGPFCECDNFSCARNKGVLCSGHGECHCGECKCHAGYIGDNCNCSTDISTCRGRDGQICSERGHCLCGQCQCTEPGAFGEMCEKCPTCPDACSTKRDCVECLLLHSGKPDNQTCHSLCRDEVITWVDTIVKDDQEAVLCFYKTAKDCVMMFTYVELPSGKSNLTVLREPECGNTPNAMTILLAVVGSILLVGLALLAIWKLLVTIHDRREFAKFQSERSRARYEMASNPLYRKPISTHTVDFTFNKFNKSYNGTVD
Summary of the method: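 Purified human integrin immobilized at 1 μg/ml in Tris buffer with Ca2+, Mg2+, Mn2+ and NaCl, then BSA-blocked. Compounds added just before 2 nM vitronectin, 3 h at 37 °C. Bound vitronectin detected by anti-vitronectin antibody with biotin/peroxidase (ABC) detection at 490 nm.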

GP IIb/IIIa = GP IIb/IIIa (Homo sapiens, UniProt P05106+P08514); assay: In Vitro Solid Phase Purified GP IIb/IIIa Binding Assay (biotinylated fibrinogen); conditions: biotinylated fibrinogen binding to immobilized purified GP IIb/IIIa, mean ± spread
Chain of GP IIb/IIIa (P08514 32-887 limits assumed): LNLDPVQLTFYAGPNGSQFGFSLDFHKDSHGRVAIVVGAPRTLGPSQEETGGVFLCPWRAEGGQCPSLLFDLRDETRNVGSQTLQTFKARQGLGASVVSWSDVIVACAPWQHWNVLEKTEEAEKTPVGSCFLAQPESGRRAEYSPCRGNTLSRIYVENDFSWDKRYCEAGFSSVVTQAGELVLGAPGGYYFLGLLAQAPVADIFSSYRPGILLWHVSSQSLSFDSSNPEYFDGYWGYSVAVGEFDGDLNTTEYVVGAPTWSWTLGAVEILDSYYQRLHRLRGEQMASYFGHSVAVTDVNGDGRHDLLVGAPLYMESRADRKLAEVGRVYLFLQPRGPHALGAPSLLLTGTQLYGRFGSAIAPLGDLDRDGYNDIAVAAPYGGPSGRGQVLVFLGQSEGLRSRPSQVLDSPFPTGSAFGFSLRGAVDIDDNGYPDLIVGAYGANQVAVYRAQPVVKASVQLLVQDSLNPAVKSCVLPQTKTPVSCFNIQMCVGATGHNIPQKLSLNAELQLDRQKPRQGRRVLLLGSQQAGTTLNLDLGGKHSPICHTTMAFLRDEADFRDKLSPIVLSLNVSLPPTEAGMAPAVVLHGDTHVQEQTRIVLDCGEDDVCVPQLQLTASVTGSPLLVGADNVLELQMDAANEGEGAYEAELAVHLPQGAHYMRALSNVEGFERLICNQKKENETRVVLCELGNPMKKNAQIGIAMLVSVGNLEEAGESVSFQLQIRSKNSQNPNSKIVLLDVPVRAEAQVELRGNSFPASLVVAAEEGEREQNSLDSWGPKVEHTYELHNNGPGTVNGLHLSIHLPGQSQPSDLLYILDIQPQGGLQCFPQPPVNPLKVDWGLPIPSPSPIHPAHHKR
Chain of GP IIb/IIIa (P08514 891-1039 partner limits assumed): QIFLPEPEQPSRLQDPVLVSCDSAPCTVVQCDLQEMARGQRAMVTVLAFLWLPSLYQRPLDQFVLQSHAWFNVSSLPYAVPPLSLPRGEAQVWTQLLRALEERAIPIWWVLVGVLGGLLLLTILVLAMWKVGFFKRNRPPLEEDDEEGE
Chain of GP IIb/IIIa (P05106 27-788): as the sequence (P05106 27-788) above
Summary of the method: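 Purified GP IIb/IIIa coated overnight at 4° C, blocked with 5% BSA, then incubated with test compound and biotinylated fibrinogen for 2-4 h at RT in modified Tyrodes buffer. Bound fibrinogen detected with avidin-biotin HRP complex and o-phenylenediamine/H2O2 (citrate/phosphate pH 5.3), stopped with 2 N H2SO4.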

Compound	IC50 (Human αvβ3)	IC50 (human purified αVβ5)	IC50 (GP IIb/IIIa; read-out: αIIbβ3 IC50)	IC50 (GP IIb/IIIa; αIIbβ3 IC50 (uM))
O=C(O)CC(CC1CCN(C(=O)CCc2ccc3c(n2)NCCC3)CC1)c1cncc2ccccc12 (stereo not drawn) [Cpd 44, β-[[1-[1-oxo-3-(5,6,7,8-tetrahydro-1,8-naphthyridin-2-yl)propyl]-4-piperidinyl]methyl]-4-isoquinolinepropanoic acid]	2.2 ± 0.9 nM	2 ± 0.6 nM	5.44 ± 1.1 µM	–
Cc1ncc(C(CC(=O)O)CC2CCN(C(=O)CCc3ccc4c(n3)NCCC4)CC2)cn1 (stereo not drawn) [Cpd 35, 2-methyl-β-[[1-[1-oxo-3-(5,6,7,8-tetrahydro-1,8-naphthyridin-2-yl)propyl]-4-piperidinyl]methyl]-5-pyrimidinepropanoic acid]	0.7 ± 0.4 nM	0.7 ± 0.2 nM	0.965 ± 0.07 µM	–
O=C(O)CC(CC1CCN(C(=O)CCc2ccc3c(n2)NCCC3)CC1)C1CNc2ccccc2C1 (stereo not drawn) [Cpd 19, 1,2,3,4-tetrahydro-β-[[1-[1-oxo-3-(5,6,7,8-tetrahydro-1,8-naphthyridin-2-yl)propyl]-4-piperidinyl]methyl]-3-quinolinepropanoic acid]	2.5 ± 0.4 nM	17.1 ± 2.5 nM	–	13.8 ± 9.69 µM
O=C(O)CC(CC1CCN(C(=O)CCc2ccc3c(n2)NCCC3)CC1)c1ccc2c(c1)CCO2 (stereo not drawn) [Cpd 46, β-(2,3-dihydro-5-benzofuranyl)-1-[1-oxo-3-(5,6,7,8-tetrahydro-1,8-naphthyridin-2-yl)propyl]-4-piperidinebutanoic acid]	3.5 ± 0.6 nM	65.9 ± 17.1 nM	13.6 ± 1.33 µM	–
O=C(O)CC(CCC1CCN(C(=O)c2cccc(NC3=NCCCN3)c2)CC1)c1cccnc1 (stereo not drawn) [Cpd 6, β-[2-[1-[3-[(1,4,5,6-Tetrahydro-2-pyrimidinyl)amino]benzoyl]-4-piperidinyl]ethyl]-3-pyridinepropanoic acid]	7.6 ± 2.1 nM	540 nM	1.62 ± 0.05 µM	–
O=C(O)CC(CCC1CCN(C(=O)c2cccc(NC3=NCC(O)CN3)c2)CC1)c1cnc2ccccc2c1 (stereo not drawn) [Cpd 49, β-[2-[1-[3-[(1,4,5,6-tetrahydro-5-hydroxy-2-pyrimidinyl)amino]benzoyl]-4-piperidinyl]ethyl]-3-quinolinepropanoic acid]	1.8 ± 0.5 nM	89.5 ± 25.5 nM	0.16 ± 0.02 µM	–
O=C(O)CC(CC1CCN(C(=O)CCc2ccc3c(n2)NCCC3)CC1)c1cccnc1 (stereo not drawn) [Cpd 45, β-[[1-[1-oxo-3-(5,6,7,8-tetrahydro-1,8-naphthyridin-2-yl)propyl]-4-piperidinyl]methyl]-3-pyridinepropanoic acid]	0.8 ± 0.1 nM	1.7 ± 0.3 nM	6.61 ± 2.85 µM	–
COc1ccc(C(CCC2CCN(C(=O)CCCNc3ccccn3)CC2)CC(=O)O)cn1 (stereo not drawn) [Cpd 25, 6-methoxy-β-[2-[1-[1-oxo-4-(2-pyridinylamino)butyl]-4-piperidinyl]ethyl]-3-pyridinepropanoic acid]	45.6 ± 6.6 nM	773 ± 118 nM	8.67 ± 1.72 µM	–
O=C(O)CC(CC1CCN(C(=O)CCCc2ccc3c(n2)NCCC3)CC1)c1cccc(F)c1 (stereo not drawn) [Cpd 31, β-(3-fluorophenyl)-1-[1-oxo-4-(5,6,7,8-tetrahydro-1,8-naphthyridin-2-yl)butyl]-4-piperidinebutanoic acid]	33 nM	300 nM	21.6 ± 4.87 µM	–
O=C(O)CC(CC1CCN(C(=O)CCc2ccc3c(n2)NCCC3)CC1)c1cccc(C(F)(F)F)c1 (stereo not drawn) [Cpd 39, 1-[1-oxo-3-(5,6,7,8-tetrahydro-1,8-naphthyridin-2-yl)propyl]-β-[3-(trifluoromethyl)phenyl]-4-piperidinebutanoic acid]	6.6 ± 1.8 nM	28.7 ± 13.3 nM	> 50 µM	–
O=C(O)CC(CC1CCN(C(=O)CCc2ccc3c(n2)NCCC3)CC1)c1ccc(Oc2ccccc2)cc1 (stereo not drawn) [Cpd 43, 1-[1-oxo-3-(5,6,7,8-tetrahydro-1,8-naphthyridin-2-yl)propyl]-β-(4-phenoxyphenyl)-4-piperidinebutanoic acid]	7.9 ± 0.7 nM	222 ± 88.5 nM	28.8 ± 15.8 µM	–
